Experimental data published in patent publication US12180187B2, “1-phenyl-5-azinylpyrazolyl-3-oxyalkyl acids and their use for controlling unwanted plant growth” (BAYER AKTIENGESELLSCHAFT, priority 2019, dated 2024).

Key:
AMARE [1] = assay: Pre-emergence action against AMARE, 1280 g/ha; assay type: in vivo, Amaranthus retroflexus; details: scored visually after about 3 weeks vs untreated controls (100% = plants have died)
Summary of the method: (§1)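 Visual percent-effect ratings (0% = like control, 100% = plants dead) were taken about 3 weeks after pre-emergence soil-surface application of WP/EC aqueous formulations with 0.5% additive, 600 L water/ha. Seeds were sown in sandy loam and grown in the greenhouse.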

AVEFA [2] = assay: Post-emergence action at 320 g/ha against AVEFA; assay type: in vivo; details: visual rating about 3 weeks after treatment vs untreated controls
Excerpt: (§2) Accordingly, the compounds of the invention have good herbicidal action against a broad spectrum of weed grasses and broad-leaved weeds and are therefore suitable for controlling unwanted vegetation by the post-emergence method. • b) Seeds of monocotyledonous and dicotyledonous weeds and crop plants are placed in sandy loam in plastic or organic planting pots, covered with soil and cultivated in a greenhouse under controlled growth conditions. 2 to 3 weeks after sowing, the test plants are treated at the one-leaf stage. The compounds of the invention, formulated in the form of wettable powders (WP) or as emulsion concentrates (EC), are then sprayed onto the green parts of the plants as aqueous suspension or emulsion with addition of 0.5% additive at a water application rate of 600 l/ha (converted). After the test plants have been kept in the greenhouse under optimum growth conditions for about 3 weeks, the activity of the preparations is rated visually in comparison to untreated controls. For example, 100% activity=the plants have died, 0% activity=like control plants. Tables 39 to 49 below show the effects of selected compounds of the general formula (I) according to Tables 1 and 2 on various harmful plants and at an application rate corresponding to 320 g/ha, which were obtained by the experimental procedure mentioned above.

DIGSA [3] = assay: Post-emergence action at 320 g/ha against DIGSA; assay type: in vivo, Digitaria sanguinalis; details: dosage 320 g/ha, visual rating about 3 weeks after treatment vs untreated controls (100% = plants died)
Excerpt: as §2

VIOTR = assay: Pre-emergence action at 320 g/ha against VIOTR; assay type: in vivo, Viola tricolor; details: dosage 320 g/ha
Summary of the method: (§3)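 Visual % scoring at about 3 weeks post-treatment against untreated pots (0% = like control, 100% = dead), greenhouse-grown. Compounds applied at 320 g/ha as aqueous WP/EC suspension or emulsion plus 0.5% additive, 600 l/ha water, onto covering soil of freshly sown pots before emergence.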

AMARE [4] = assay: Pre-emergence action at 320 g/ha against AMARE; assay type: in vivo, Amaranthus retroflexus; details: visual scoring after about 3 weeks vs untreated controls
Summary of the method: as §3

VERPE [5] = assay: Pre-emergence action at 320 g/ha against VERPE; assay type: in vivo, Veronica persica; details: visual scoring after about 3 weeks vs untreated controls
Summary of the method: as §3

VERPE [6] = assay: Post-emergence action against VERPE, 1.28 kg/ha; assay type: in vivo, Veronica persica; details: dosage 1280 g/ha, visual rating about 3 weeks after treatment vs untreated controls (100% = plants died)
Summary of the method: (§4)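 Post-emergence greenhouse spray, one-leaf stage (2–3 wk after sowing), sandy loam. WP/EC, aqueous + 0.5% additive, 600 L/ha water. Visual % activity vs untreated, ~3 wk after treatment; 100% = plants dead.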

ABUTH [7] = assay: Pre-emergence action against ABUTH, 1280 g/ha; assay type: in vivo, Abutilon theophrasti; details: scored visually after about 3 weeks vs untreated controls (100% = plants have died)
Summary of the method: as §1

POAAN [8] = assay: Post-emergence action against POAAN, 1.28 kg/ha; assay type: in vivo, Poa annua; details: dosage 1280 g/ha, visual rating about 3 weeks after treatment vs untreated controls
Summary of the method: as §4

ABUTH [9] = assay: Post-emergence action at 320 g/ha against ABUTH; assay type: in vivo, Abutilon theophrasti; details: visual rating about 3 weeks after treatment vs untreated controls
Excerpt: as §2

ALOMY [10] = assay: Post-emergence action against ALOMY, 320 g/ha; assay type: in vivo, Alopecurus myosuroides; details: dosage 320 g/ha, visual rating about 3 weeks after treatment vs untreated controls (100% = plants died)
Excerpt: as §2

MATIN [11] = assay: Post-emergence action against MATIN, 1.28 kg/ha; assay type: in vivo, Tripleurospermum inodorum (Matricaria inodora); details: dosage 1280 g/ha, visual rating about 3 weeks after treatment vs untreated controls (100% = plants died)
Summary of the method: as §4

DIGSA [12] = assay: Post-emergence action against DIGSA, 1.28 kg/ha; assay type: in vivo, Digitaria sanguinalis; details: dosage 1280 g/ha, visual rating about 3 weeks after treatment vs untreated controls
Summary of the method: as §4

MATIN [13] = assay: Pre-emergence action at 320 g/ha against MATIN; assay type: in vivo, Tripleurospermum inodorum (Matricaria inodora); details: visual scoring after about 3 weeks vs untreated controls
Summary of the method: as §3

POLCO [14] = assay: Post-emergence action at 320 g/ha against POLCO; assay type: in vivo, Fallopia convolvulus (Polygonum convolvulus); details: visual rating about 3 weeks after treatment vs untreated controls
Excerpt: as §2

AMARE [15] = assay: Post-emergence action against AMARE, 1.28 kg/ha; assay type: in vivo, Amaranthus retroflexus; details: dosage 1280 g/ha, visual rating about 3 weeks after treatment vs untreated controls (100% = plants died)
Summary of the method: as §4

LOLRI = assay: Pre-emergence action against LOLRI, 1280 g/ha; assay type: in vivo, Lolium rigidum; details: visual scoring after about 3 weeks vs untreated controls, 100% = plants have died, 0% = like control plants
Summary of the method: as §1

STEME [16] = assay: Post-emergence action against STEME, 1.28 kg/ha; assay type: in vivo, Stellaria media; details: dosage 1280 g/ha, visual rating about 3 weeks after treatment vs untreated controls (100% = plants died)
Summary of the method: as §4

SETVI [17] = assay: Pre-emergence action against SETVI, 1280 g/ha; assay type: in vivo, Setaria viridis; details: visual scoring after about 3 weeks vs untreated controls, 100% = plants have died, 0% = like control plants
Summary of the method: as §1

STEME [18] = assay: Pre-emergence action against STEME, 1280 g/ha; assay type: in vivo, Stellaria media; details: scored visually after about 3 weeks vs untreated controls (100% = plants have died)
Summary of the method: as §1

VERPE [19] = assay: Pre-emergence action against VERPE, 1280 g/ha; assay type: in vivo, Veronica persica; details: scored visually after about 3 weeks vs untreated controls (100% = plants have died)
Summary of the method: as §1

ALOMY [20] = assay: Pre-emergence action against ALOMY, 1280 g/ha; assay type: in vivo, Alopecurus myosuroides; details: visual scoring after about 3 weeks vs untreated controls, 100% = plants have died, 0% = like control plants
Summary of the method: as §1

AVEFA [21] = assay: Pre-emergence action at 320 g/ha against AVEFA; assay type: in vivo; details: visual scoring after about 3 weeks vs untreated controls
Summary of the method: as §3

SETVI [22] = assay: Post-emergence action at 320 g/ha against SETVI; assay type: in vivo, Setaria viridis; details: visual rating about 3 weeks after treatment vs untreated controls
Excerpt: as §2

ECHCG [23] = assay: Post-emergence action against ECHCG, 1.28 kg/ha; assay type: in vivo, Echinochloa crus-galli; details: dosage 1280 g/ha, visual rating about 3 weeks after treatment vs untreated controls
Summary of the method: as §4

DIGSA [24] = assay: Pre-emergence action at 320 g/ha against DIGSA; assay type: in vivo, Digitaria sanguinalis; details: visual scoring after about 3 weeks vs untreated controls
Summary of the method: as §3

DIGSA [25] = assay: Pre-emergence action against DIGSA, 1280 g/ha; assay type: in vivo, Digitaria sanguinalis; details: visual scoring after about 3 weeks vs untreated controls, 100% = plants have died, 0% = like control plants
Summary of the method: as §1

POLCO [26] = assay: Pre-emergence action at 320 g/ha against POLCO; assay type: in vivo, Fallopia convolvulus (Polygonum convolvulus); details: visual scoring after about 3 weeks vs untreated controls
Summary of the method: as §3

MATIN [27] = assay: Pre-emergence action against MATIN, 1280 g/ha; assay type: in vivo, Tripleurospermum inodorum (Matricaria inodora); details: scored visually after about 3 weeks vs untreated controls (100% = plants have died)
Summary of the method: as §1

SETVI [28] = assay: Post-emergence action against SETVI, 1.28 kg/ha; assay type: in vivo, Setaria viridis; details: dosage 1280 g/ha, visual rating about 3 weeks after treatment vs untreated controls
Summary of the method: as §4

ECHCG [29] = assay: Pre-emergence action against ECHCG, 1280 g/ha; assay type: in vivo, Echinochloa crus-galli; details: visual scoring after about 3 weeks vs untreated controls, 100% = plants have died, 0% = like control plants
Summary of the method: as §1

POAAN [30] = assay: Pre-emergence action against POAAN, 1280 g/ha; assay type: in vivo, Poa annua; details: visual scoring after about 3 weeks vs untreated controls, 100% = plants have died, 0% = like control plants
Summary of the method: as §1

CCOC(=O)COc1nn(-c2ccccc2F)c(-c2cncnc2)c1Br [VI-001]
Pre-emergence action against AMARE (AMARE [1]): 100% | Post-emergence action against AVEFA in % (AVEFA [2]): 80% | Post-emergence action at 320 g/ha against DIGSA in % (DIGSA [3]): 90% | Pre-emergence action against VIOTR in % (VIOTR): 100% | Pre-emergence action against AMARE in % (AMARE [4]): 100% | Pre-emergence action against VERPE in % (VERPE [5]): 100% | Post-emergence action against VERPE (VERPE [6]): 100% | Pre-emergence action against ABUTH (ABUTH [7]): 90% | Post-emergence action against POAAN (POAAN [8]): 100% | Post-emergence action against ABUTH in % (ABUTH [9]): 80% | Post-emergence action against ALOMY (ALOMY [10]): 90% | Post-emergence action against MATIN (MATIN [11]): 90% | Post-emergence action against DIGSA (DIGSA [12]): 100% | Pre-emergence action against MATIN in % (MATIN [13]): 90% | Post-emergence action against POLCO in % (POLCO [14]): 90% | Post-emergence action against AMARE (AMARE [15]): 90% | Pre-emergence action against LOLRI (LOLRI): 100% | Post-emergence action against STEME (STEME [16]): 100% | Pre-emergence action against SETVI (SETVI [17]): 100% | Pre-emergence action against STEME (STEME [18]): 100% | Pre-emergence action against VERPE (VERPE [19]): 100% | Pre-emergence action against ALOMY (ALOMY [20]): 90% | Pre-emergence action against AVEFA in % (AVEFA [21]): 90% | Post-emergence action against SETVI in % (SETVI [22]): 80% | Post-emergence action against ECHCG (ECHCG [23]): 100% | Pre-emergence action against DIGSA in % (DIGSA [24]): 100% | Pre-emergence action against DIGSA (DIGSA [25]): 90% | Pre-emergence action against POLCO in % (POLCO [26]): 100% | Pre-emergence action against MATIN (MATIN [27]): 100% | Post-emergence action against SETVI (SETVI [28]): 100% | Pre-emergence action against ECHCG (ECHCG [29]): 100% | Pre-emergence action against POAAN (POAAN [30]): 100%
